From US20110092465A1, “MONOMERIC PYROPHOSPHATE COMPLEXES AND METHODS OF TREATMENT USING THE COMPLEXES” (SYRACUSE UNIVERSITY, priority 2009, published 2011)
Read-outs that look alike come from different tables or passages of the source.

Tests used:
[1] = tested on: A2780/AD cell line; format: cell-based, human
Procedure: Cisplatin was used as a control and for comparative purposes. The IC50 values (μM) are for compounds 1-4 in A2780/AD cell line. Cisplatin controls and dimeric complexes previously reported are also shown for comparison:
Experimental details for the in-vitro cell testing of compounds [Co(phen)2(H2P2O7)].4H2O (1.4H2O), [Ni(phen)2(H2P2O7)].8H2O (2.8H2O) and [Cu(phen)(H2O)(H2P2O7)]. For in vitro cell studies, all experiments were performed in a Labconco Purifier I laminar flow hood that had been disinfected with 70% ethanol and irradiated with UV light. The A2780/AD cell line that was used for testing was provided by the Fox Chase Cancer Center, Philadelphia (USA). Fetal bovine serum (FBS) was purchased from Hyclone. Penicillin-streptomycin solution with 10,000 units penicillin and 10 mg/mL streptomycin in 0.9% NaCl was obtained from Sigma. Gibco RPMI 1640 growth media that contained L-glutamine and phenol red was supplied by Invitrogen. Cellgro Cellstripper, a non-enzymatic cell dissociation solution, was obtained from Mediatech. Growth media were filtered with 0.22 μm filter (VWR). Cell Counting Kit 8 (CCK8) was purchased from Dojindo. Cells were incubated and grown in an incubator that was purchased from VWR. Optical densities of the cell cultures were measured at 450 nm with Thermo Multiskan EX that was equipped with Ascent software version 2.6.
Cell lines and culture conditions. The A2780/AD cell line was cultured in BD Falcon 25 cm^2 surface area, canted neck flaks with vented cap (VWR) containing RPMI media supplemented with 10% FBS and 10% Penicillin-Streptomycin solution by volume. Subcultures were generated by incubating the cells with Cellstripper, and passing cells at a 1:10 culture ratio.
Drug cytotoxicity. Cells used for studies were diluted to make either a solution of 50,000 cells/mL, used for the 72 h studies, or 80,000 cells/mL, used for the 6 and 24 h studies. 100 μL of the cell solution was added to the wells of a 96 well plate, and the cells were allowed to adhere overnight. The media was then removed from the 96 well plates and replaced with either 100 μL (for 6 h studies) or 200 μL (for 24 and 72 h studies) of media containing drug. Drug solutions were prepared by dissolving the drug in media (compounds 2, 4) or in a 25% methanol solution (compounds 1, 3). The solutions were filter sterilized and serially diluted 1:10. The concentration of methanol was kept below 5% for all concentrations studied. Cisplatin was prepared by dissolving in PBS and sonicating for 1 h to create a final concentration of 0.5 mg/mL (1.66 mM). Each drug was tested over 9 concentrations in triplicate with each point in done in triplicate. After the incubation period, the drug containing media was removed and replaced with 100 μL of media containing 10% CCK-8 solution by volume. The plates were incubated until the control reached 0.8-1.2 absorbance at 450 nm (2, 1.5 and 0.5 h for the 6, 24, 72 h runs respectively). The absorbance was measured at 450 nm via a plate reader. A blank was subtracted from all wells, and the results were plotted as a percentage compared to the control vs. concentration of drug. IC50 values were calculated by fitting the data using Prism Graphpad 5 using a nonlinear, dose response curve with a 4 variable fit. The reported ICso values are an average of at least 3 runs reported with standard deviation.

[2] = tested on: adriamycin-resistant human ovarian cancer cell line (A2780/AD); test: Proliferation colorimetric assay (WSK-8) of compounds 11-13 in A2780/AD; format: cell-based; conditions: for toxicity in words: 24 and 72 h
Procedure: Compounds 11, 12, and 13 were tested against the adriamycin-resistant human ovarian cancer cell line (A2780/AD) over a time period of 24 and 72 h (Table 8 below). Cisplatin was used as an external control. Adriamycin resistant ovarian cancer cell line (A2780/AD) were cultured as adherent monolayers in RPMI 1640 (Invitrogen) growth media containing L-glutamine and folic acid supplemented with 10,000 units penicillin, 10 mg/ml streptomycin (Sigma) and 10% (v/v) fetal bovine serum (Sigma). Cells were incubated and grown in a VWR mammalian incubator at 5% CO2 and 95% humidity. All preparations for cell culture and assays were conducted in a sterile environment under a Labconco Purifier I Laminar flow hood. Cells were cultured in Millipore 250 mL culture bottles with vented lids.
The proliferation of the exponential phase cultures of A2780/AD were assessed by colorimetric assay. WSK-8 (Dojindo) was performed according to manufacturer's instruction. Adherent cell cultures were harvested by stripping of culture flask by a non-enzymatic cell stripper (Mediatech) after a 30 minute incubation period. The cells were then collected. The cell density was adjusted with the addition of RPMI 1640 media to 80,000 cells/mL for exponential growth for the period of drug exposure. To each well, aliquots of 100 μL were inoculated resulting in 8,000 cells per well. After a 24 h incubation time to facilitate adherence, the media was removed and replaced with 200 μl of fresh media containing different concentrations of compounds 11, 12, and 13. The cells were then incubated for 24 and 72 h. Optical densities were measured at 450 nm using a plate reader. The percentage of cell viability was determined relative to untreated control microcultures. The IC50 concentrations were calculated based on a sigmoidal (doseresponse) fit using OriginLabs 8 software with R^2 values ≧0.70 in all cases (average R^2 value 0.90). All experimental points were measured in triplicate and each experiment was performed at least three times on separate “batches” of synthesized compound. A2780/AD2O cells used were fewer than 12 passages for all testing.

[3] = tested on: adriamycin-resistant human ovarian cancer cell line (A2780/AD); conditions: dimeric complexes previously reported (Ref 3), cited from earlier work
[4] = A2780/AD, 6 h exposure, read-out: IC50 6 h
[5] = A2780/AD, 24 h exposure, read-out: IC50 24 h
[6] = A2780/AD, 72 h exposure, read-out: IC50 72 h
[7] = 24 h exposure, read-out: IC50 24 h
[8] = 72 h exposure, read-out: IC50 72 h

| Compound | IC50 [1] [µM] | cytotoxic activity in words [1] | IC50 [1, 4] [µM] | IC50 [1, 5] [µM] | IC50 [1, 6] [µM] | toxicity in words [2] | IC50 ([2]; 72 h, read-out: IC50 at 72 h) [µM] | IC50 [2, 7] [µM] | IC50 [2, 8] [µM] | IC50 ([3]; 24 h, read-out: IC50 24 h) [µM] | IC50 ([3]; 72 h, read-out: IC50 72 h) [µM] |
| --- | --- | --- | --- | --- | --- | --- | --- | --- | --- | --- | --- |
| O=P([O-])(O)OP(=O)([O-])O.[Co+2].c1cnc2c(c1)ccc1cccnc12.c1cnc2c(c1)ccc1cccnc12 [compound 1, [Co(phen)2(H2P2O7)].4H2O] | 0.03 to 0.08 | low nanomolar range | > 1000 | 5 | 0.03 ± 0.02 | – | – | – | – | – | – |
| O=P([O-])(O)OP(=O)([O-])O.[Ni+2].c1cnc2c(c1)ccc1cccnc12.c1cnc2c(c1)ccc1cccnc12 [compound 2, [Ni(phen)2(H2P2O7)].8H2O] | – | little activity | > 1000 | > 1000 | 630 ± 390 | low nanomolar inhibitory concentrations | – | – | – | – | – |
| O.O=P([O-])(O)OP(=O)([O-])O.[Cu+2].c1cnc2c(c1)ccc1cccnc12 [compound 3, [Cu(phen)(H2O)(H2P2O7)]] | – | low nanomolar range | 14 ± 6 | 0.7 | 0.14 ± 0.05 | – | ~0.000162 | – | – | – | – |
| O.O.O.O.O.O.O.O.O.O.O.O.O.O.O.O=P([O-])([O-])OP(=O)([O-])[O-].[Cu+2].[Na+].[Na+].c1cnc2c(c1)ccc1cccnc12 [compound 4, {[Cu(phen)(H2O)(P2O7)] [Na2(H2O)8]}.6H2O] | 0.03 to 0.08 | low nanomolar range | 15 ± 6 | 0.6 ± 0.6 | 0.08 ± 0.03 | – | – | – | – | – | – |
| O=P([O-])([O-])OP(=O)([O-])[O-].[Ni+2].[Ni+2].c1cnc2c(c1)ccc1cccnc12.c1cnc2c(c1)ccc1cccnc12.c1cnc2c(c1)ccc1cccnc12.c1cnc2c(c1)ccc1cccnc12 [compound 11, {[Ni(phen)2]2(μ-P2O7)}.27H2O] | – | – | – | – | – | low toxicity | – | 589 ± 31.6 | 304 ± 40.9 | 590 | 304 |
| O.O.O.O.O.O.O.O.O.O.O=P([O-])([O-])OP(=O)([O-])[O-].[Cu+2].[Cu+2].c1cnc2c(c1)ccc1cccnc12.c1cnc2c(c1)ccc1cccnc12 [compound 12, {[Cu(phen)(H2O)]2(μ-P2O7)}.8H2O] | – | – | – | – | – | significant toxicity | – | 0.64 ± 0.12 | – | 0.6 | 0.0018 |
| O=P([O-])([O-])OP(=O)([O-])[O-].[Co+2].[Co+2].c1cnc2c(c1)ccc1cccnc12.c1cnc2c(c1)ccc1cccnc12.c1cnc2c(c1)ccc1cccnc12.c1cnc2c(c1)ccc1cccnc12 [compound 13, {[Co(phen)2]2(μ-25 P2O7)}.6MeOH] | – | – | – | – | – | significant toxicity | 0.00016 | 2.01 ± 0.86 | – | 2 | 0.00017 |
| cis-[Pt(NH3)2Cl2] [Cisplatin, reference compound] | – | – | > 160 | 200 ± 16 | 13 ± 5 | – | – | 84 ± 10.3 | 11 ± 1.5 | – | – |
